Source: ChEMBL document CHEMBL4152224, “The Identification of Potent, Selective, and Orally Available Inhibitors of Ataxia Telangiectasia Mutated (ATM) Kinase: The Discovery of AZD0156 (8-{6-[3-(Dimethylamino)propoxy]pyridin-3-yl}-3-methyl-1-(tetrahydro-2 H-pyran-4-yl)-1,3-dihydro-2 H-imidazo[4,5- c]quinolin-2-one)” (J Med Chem, 2018)
≈ marks a conversion by molar mass, not a printed value. Calls of active or inactive are those of the source. No cut-off for these calls is given here.

How the values were obtained:
[1] = Intrinsic clearance in human hepatocytes assessed per million cells
[2] = Thermodynamic solubility of the compound in 0.1M aqueous phosphate buffer at pH 7.4 after 24 hrs by LC-UV analysis; assay type: physicochemical; conditions: read-out: Therm_solubility
[3] = Intrinsic clearance in rat hepatocytes assessed per million cells
[4] = Dissociation constant, pKa of the compound; assay type: physicochemical
[5] = molecular target: Voltage-gated inwardly rectifying potassium channel KCNH2 (Homo sapiens, UniProt Q12809); test: Inhibition of human ERG by electrophysiology assay
[6] = molecular target: Serine/threonine-protein kinase ATR (Homo sapiens, UniProt Q13535)
[7] = Buffer/octanol partition coefficient, log D of the compound at pH 7.4 by shake flask method; assay type: physicochemical
in vitro = conditions: dog, MDCK-MDR1
Description: Efflux ratio of apparent permeability across basolateral to apical over apical to basolateral side in MDCK cells overexpressing MDR1

[8] = molecular target: Serine-protein kinase ATM (Homo sapiens, UniProt Q13315)
[9] = Apparent permeability across apical to basolateral side in MDCK cells overexpressing MDR1; assay type: ADME, cell-based, Canis lupus familiaris; conditions: dog
[10] = Apparent permeability across apical to basolateral side in human Caco2 cells; assay type: ADME, cell-based; conditions: Caco-2
[11] = molecular target: T1, Phosphatidylinositol 4,5-bisphosphate 3-kinase catalytic subunit delta isoform (Homo sapiens, UniProt O00329); test: Inhibition of human PI3Kdelta (R108 to Q1044 residues) expressed in mammalian expression system
T1 sequence (O00329 whole entry): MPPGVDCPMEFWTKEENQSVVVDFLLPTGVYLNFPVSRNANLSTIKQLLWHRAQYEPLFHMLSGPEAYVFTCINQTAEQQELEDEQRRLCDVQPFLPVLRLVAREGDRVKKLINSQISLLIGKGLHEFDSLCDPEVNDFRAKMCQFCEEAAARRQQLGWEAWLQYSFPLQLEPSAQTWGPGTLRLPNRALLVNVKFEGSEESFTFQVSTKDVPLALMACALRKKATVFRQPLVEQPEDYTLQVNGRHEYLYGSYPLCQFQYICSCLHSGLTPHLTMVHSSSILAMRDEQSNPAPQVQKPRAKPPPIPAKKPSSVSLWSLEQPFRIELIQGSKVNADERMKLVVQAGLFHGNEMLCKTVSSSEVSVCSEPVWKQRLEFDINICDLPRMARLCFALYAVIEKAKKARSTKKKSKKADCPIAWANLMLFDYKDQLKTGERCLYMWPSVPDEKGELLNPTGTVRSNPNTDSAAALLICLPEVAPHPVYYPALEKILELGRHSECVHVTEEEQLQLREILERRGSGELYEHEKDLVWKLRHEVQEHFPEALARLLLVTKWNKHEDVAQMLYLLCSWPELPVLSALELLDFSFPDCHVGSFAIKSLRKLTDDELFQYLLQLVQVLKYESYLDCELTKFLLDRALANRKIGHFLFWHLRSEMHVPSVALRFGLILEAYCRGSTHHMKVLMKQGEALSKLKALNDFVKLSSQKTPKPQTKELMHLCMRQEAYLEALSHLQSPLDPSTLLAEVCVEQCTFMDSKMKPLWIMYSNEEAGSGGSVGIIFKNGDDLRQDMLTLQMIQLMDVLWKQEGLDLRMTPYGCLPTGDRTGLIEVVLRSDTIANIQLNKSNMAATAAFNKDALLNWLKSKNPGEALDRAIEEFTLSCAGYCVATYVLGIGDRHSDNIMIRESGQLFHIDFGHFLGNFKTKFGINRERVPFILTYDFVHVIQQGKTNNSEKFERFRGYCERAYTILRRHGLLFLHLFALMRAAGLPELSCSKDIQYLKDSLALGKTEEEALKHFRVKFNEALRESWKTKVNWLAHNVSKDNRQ

[12] = Oral bioavailability in rat; assay type: ADME, organism-based; conditions: in vivo
[13] = Volume of distribution at steady state in rat; assay type: ADME, organism-based; conditions: in vivo, read-out: Vdss
[14] = AUC (0 to 12 hrs) in patient with solid tumor at 30 mg, po bid by LC-MS/MS analysis; assay type: ADME, organism-based; parameters: time < 12 hr, dose 30 mg, route oral; conditions: human, in vivo
Cytochrome P450 2C19 = Cytochrome P450 2C19 (Homo sapiens, UniProt P33261); test: Inhibition of human CYP2C19; assay type: ADME
[15] = Tmax in patient with solid tumor at 60 mg, po bid by LC-MS/MS analysis; assay type: ADME, organism-based; conditions: human, in vivo
[16] = molecular target: Serine/threonine-protein kinase mTOR (Homo sapiens) (UniProt P42345); test: Inhibition of human m-TOR (L1382 to W2549 residues) expressed in mammalian expression system at 1 uM relative to control
[17] = Tmax in patient with solid tumor at 30 mg, po bid by LC-MS/MS analysis; assay type: ADME, organism-based; conditions: human, in vivo
[18] = Volume of distribution at steady state in dog; assay type: ADME, organism-based, Canis lupus familiaris; conditions: in vivo, read-out: Vdss
[19] = Cmax in patient with solid tumor at 15 mg, po bid by LC-MS/MS analysis; assay type: ADME, organism-based; parameters: dose 15 mg, route oral; conditions: human, in vivo
[20] = AUC (0 to 12 hrs) in patient with solid tumor at 15 mg, po bid by LC-MS/MS analysis; assay type: ADME, organism-based; parameters: time < 12 hr, dose 15 mg, route oral; conditions: human, in vivo
[21] = Solubility of the compound in phosphate buffer at pH 6.5; assay type: physicochemical
[22] = AUC (0 to 12 hrs) in patient with solid tumor at 60 mg, po bid by LC-MS/MS analysis; assay type: ADME, organism-based; parameters: dose 60 mg, time < 12 hr, route oral; conditions: human, in vivo
Mus musculus [23] = test: Toxicity in immunocompromised mouse xenografted with human HBCx-10 cells at 5 mg/kg, po qd administered on days 1 to 3 of weekly cycle in presence of olaparib; assay type: organism-based; conditions: in vivo
[24] = molecular target: Phosphatidylinositol 4,5-bisphosphate 3-kinase catalytic subunit beta isoform (Homo sapiens, UniProt P42338); test: Inhibition of human PI3Kbeta (P118 to S1070 residues) expressed in mammalian expression system
Cytochrome P450 2D6 = Cytochrome P450 2D6 (Homo sapiens, UniProt P10635); test: Inhibition of human CYP2D6; assay type: ADME
[25] = Oral bioavailability in dog; assay type: ADME, organism-based, Canis lupus familiaris; conditions: in vivo
[26] = molecular target: Phosphatidylinositol 4,5-bisphosphate 3-kinase catalytic subunit gamma isoform (Homo sapiens, UniProt P48736); test: Inhibition of human PI3Kgamma (S144 to A1102 residues) expressed in mammalian expression system
[27] = Solubility of the compound in FaSSIF; assay type: physicochemical
[28] = AUC (0 to 12 hrs) in patient with solid tumor at 120 mg, po bid by LC-MS/MS analysis; assay type: ADME, organism-based; parameters: dose 120 mg, time < 12 hr, route oral; conditions: human, in vivo
Cytochrome P450 2C9 = Cytochrome P450 2C9 (Homo sapiens, UniProt P11712); test: Inhibition of human CYP2C9; assay type: ADME
SW-620 [29] = test: Antitumor activity against human SW620 cells xenografted in immunocompromised mouse assessed as tumor regression at 20 mg/kg, po qd administered on days 2 to 4 of weekly cycle; assay type: functional, organism-based
[30] = Apparent permeability across apical to basolateral side in human Caco2 cells at pH 6.5; assay type: ADME, cell-based; conditions: Caco-2, pH 6.5
[31] = Cmax in patient with solid tumor at 60 mg, po bid by LC-MS/MS analysis; assay type: ADME, organism-based; parameters: dose 60 mg, route oral; conditions: human, in vivo
[32] = Cmax in patient with solid tumor at 120 mg, po bid by LC-MS/MS analysis; assay type: ADME, organism-based; parameters: dose 120 mg, route oral; conditions: human, in vivo
Homo sapiens = test: Potentiation of […]-induced tumor regression against human HBCx-10 cells xenografted in immunocompromised mouse at 5 mg/kg, po qd administered on days 1 to 3 of weekly cycle; assay type: functional, organism-based
Cytochrome P450 3A4 = Cytochrome P450 3A4 (Homo sapiens, UniProt P08684); test: Inhibition of human CYP3A4; assay type: ADME
Mus musculus [33] = test: Toxicity in immunocompromised mouse xenografted with human SW620 cells at 20 mg/kg, po qd administered on days 2 to 4 of weekly cycle in presence of irinotecan; assay type: organism-based; conditions: in vivo
[34] = Tmax in patient with solid tumor at 120 mg, po bid by LC-MS/MS analysis; assay type: ADME, organism-based; conditions: human, in vivo
[35] = Fraction unbound in rat plasma
[36] = Cmax in patient with solid tumor at 30 mg, po bid by LC-MS/MS analysis; assay type: ADME, organism-based; parameters: dose 30 mg, route oral; conditions: human, in vivo
Cytochrome P450 1A2 = molecular target: T2, Cytochrome P450 1A2 (Homo sapiens, UniProt P05177); test: Inhibition of human CYP1A2; assay type: ADME
T2 sequence (P05177 whole entry): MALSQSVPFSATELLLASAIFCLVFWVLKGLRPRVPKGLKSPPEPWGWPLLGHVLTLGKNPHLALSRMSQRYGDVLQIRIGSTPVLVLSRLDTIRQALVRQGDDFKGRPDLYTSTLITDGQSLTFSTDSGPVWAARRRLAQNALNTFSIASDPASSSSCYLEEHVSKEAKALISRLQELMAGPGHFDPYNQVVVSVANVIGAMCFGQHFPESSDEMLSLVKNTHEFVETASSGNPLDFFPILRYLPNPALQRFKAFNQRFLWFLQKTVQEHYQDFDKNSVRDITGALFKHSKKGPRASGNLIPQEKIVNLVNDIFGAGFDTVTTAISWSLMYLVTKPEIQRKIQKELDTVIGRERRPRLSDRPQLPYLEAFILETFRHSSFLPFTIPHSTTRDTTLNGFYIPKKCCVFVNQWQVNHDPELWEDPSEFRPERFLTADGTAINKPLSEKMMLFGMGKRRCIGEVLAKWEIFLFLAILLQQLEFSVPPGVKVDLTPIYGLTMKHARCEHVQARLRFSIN

[37] = Solubility of the compound in simulated gastric fluid; assay type: physicochemical
SW-620 [38] = test: Potentiation of irinotecan-induced tumor regression against human SW620 cells xenografted in immunocompromised mouse at 20 mg/kg, po qd administered on days 2 to 4 of weekly cycle; assay type: functional, organism-based
[39] = Tmax in patient with solid tumor at 15 mg, po bid by LC-MS/MS analysis; assay type: ADME, organism-based; conditions: human, in vivo

Sequence of Voltage-gated inwardly rectifying potassium channel KCNH2 (Q12809 whole entry): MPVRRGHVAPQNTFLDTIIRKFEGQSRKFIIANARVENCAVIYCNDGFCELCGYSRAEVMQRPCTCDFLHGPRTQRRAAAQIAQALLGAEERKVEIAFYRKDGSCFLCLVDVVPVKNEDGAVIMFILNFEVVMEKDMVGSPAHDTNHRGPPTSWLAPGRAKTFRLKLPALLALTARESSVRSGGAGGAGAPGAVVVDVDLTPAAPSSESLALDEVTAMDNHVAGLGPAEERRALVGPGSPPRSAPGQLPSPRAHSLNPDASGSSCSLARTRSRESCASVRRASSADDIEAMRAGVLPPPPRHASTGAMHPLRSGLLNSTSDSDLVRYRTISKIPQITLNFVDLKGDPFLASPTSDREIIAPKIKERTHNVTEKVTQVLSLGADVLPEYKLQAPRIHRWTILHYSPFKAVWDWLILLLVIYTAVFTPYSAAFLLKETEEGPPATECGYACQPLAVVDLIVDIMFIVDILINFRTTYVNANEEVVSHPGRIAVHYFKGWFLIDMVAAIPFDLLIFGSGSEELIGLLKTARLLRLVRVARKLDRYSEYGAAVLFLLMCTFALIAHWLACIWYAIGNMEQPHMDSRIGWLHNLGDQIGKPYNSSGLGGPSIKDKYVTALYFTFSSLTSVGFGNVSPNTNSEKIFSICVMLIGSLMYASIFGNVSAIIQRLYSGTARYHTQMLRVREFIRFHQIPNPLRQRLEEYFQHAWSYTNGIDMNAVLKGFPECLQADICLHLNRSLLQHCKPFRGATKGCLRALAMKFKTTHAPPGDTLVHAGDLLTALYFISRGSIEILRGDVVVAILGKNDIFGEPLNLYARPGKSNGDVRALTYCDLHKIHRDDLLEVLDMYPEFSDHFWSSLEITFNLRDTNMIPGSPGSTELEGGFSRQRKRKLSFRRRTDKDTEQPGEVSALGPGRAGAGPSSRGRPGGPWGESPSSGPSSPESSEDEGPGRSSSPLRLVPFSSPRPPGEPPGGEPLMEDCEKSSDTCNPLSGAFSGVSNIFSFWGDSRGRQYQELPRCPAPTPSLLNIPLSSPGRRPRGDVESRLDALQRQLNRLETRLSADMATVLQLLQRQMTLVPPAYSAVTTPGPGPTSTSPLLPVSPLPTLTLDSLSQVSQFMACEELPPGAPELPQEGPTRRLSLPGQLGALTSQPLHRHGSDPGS
Sequence of Serine/threonine-protein kinase ATR (Q13535 whole entry): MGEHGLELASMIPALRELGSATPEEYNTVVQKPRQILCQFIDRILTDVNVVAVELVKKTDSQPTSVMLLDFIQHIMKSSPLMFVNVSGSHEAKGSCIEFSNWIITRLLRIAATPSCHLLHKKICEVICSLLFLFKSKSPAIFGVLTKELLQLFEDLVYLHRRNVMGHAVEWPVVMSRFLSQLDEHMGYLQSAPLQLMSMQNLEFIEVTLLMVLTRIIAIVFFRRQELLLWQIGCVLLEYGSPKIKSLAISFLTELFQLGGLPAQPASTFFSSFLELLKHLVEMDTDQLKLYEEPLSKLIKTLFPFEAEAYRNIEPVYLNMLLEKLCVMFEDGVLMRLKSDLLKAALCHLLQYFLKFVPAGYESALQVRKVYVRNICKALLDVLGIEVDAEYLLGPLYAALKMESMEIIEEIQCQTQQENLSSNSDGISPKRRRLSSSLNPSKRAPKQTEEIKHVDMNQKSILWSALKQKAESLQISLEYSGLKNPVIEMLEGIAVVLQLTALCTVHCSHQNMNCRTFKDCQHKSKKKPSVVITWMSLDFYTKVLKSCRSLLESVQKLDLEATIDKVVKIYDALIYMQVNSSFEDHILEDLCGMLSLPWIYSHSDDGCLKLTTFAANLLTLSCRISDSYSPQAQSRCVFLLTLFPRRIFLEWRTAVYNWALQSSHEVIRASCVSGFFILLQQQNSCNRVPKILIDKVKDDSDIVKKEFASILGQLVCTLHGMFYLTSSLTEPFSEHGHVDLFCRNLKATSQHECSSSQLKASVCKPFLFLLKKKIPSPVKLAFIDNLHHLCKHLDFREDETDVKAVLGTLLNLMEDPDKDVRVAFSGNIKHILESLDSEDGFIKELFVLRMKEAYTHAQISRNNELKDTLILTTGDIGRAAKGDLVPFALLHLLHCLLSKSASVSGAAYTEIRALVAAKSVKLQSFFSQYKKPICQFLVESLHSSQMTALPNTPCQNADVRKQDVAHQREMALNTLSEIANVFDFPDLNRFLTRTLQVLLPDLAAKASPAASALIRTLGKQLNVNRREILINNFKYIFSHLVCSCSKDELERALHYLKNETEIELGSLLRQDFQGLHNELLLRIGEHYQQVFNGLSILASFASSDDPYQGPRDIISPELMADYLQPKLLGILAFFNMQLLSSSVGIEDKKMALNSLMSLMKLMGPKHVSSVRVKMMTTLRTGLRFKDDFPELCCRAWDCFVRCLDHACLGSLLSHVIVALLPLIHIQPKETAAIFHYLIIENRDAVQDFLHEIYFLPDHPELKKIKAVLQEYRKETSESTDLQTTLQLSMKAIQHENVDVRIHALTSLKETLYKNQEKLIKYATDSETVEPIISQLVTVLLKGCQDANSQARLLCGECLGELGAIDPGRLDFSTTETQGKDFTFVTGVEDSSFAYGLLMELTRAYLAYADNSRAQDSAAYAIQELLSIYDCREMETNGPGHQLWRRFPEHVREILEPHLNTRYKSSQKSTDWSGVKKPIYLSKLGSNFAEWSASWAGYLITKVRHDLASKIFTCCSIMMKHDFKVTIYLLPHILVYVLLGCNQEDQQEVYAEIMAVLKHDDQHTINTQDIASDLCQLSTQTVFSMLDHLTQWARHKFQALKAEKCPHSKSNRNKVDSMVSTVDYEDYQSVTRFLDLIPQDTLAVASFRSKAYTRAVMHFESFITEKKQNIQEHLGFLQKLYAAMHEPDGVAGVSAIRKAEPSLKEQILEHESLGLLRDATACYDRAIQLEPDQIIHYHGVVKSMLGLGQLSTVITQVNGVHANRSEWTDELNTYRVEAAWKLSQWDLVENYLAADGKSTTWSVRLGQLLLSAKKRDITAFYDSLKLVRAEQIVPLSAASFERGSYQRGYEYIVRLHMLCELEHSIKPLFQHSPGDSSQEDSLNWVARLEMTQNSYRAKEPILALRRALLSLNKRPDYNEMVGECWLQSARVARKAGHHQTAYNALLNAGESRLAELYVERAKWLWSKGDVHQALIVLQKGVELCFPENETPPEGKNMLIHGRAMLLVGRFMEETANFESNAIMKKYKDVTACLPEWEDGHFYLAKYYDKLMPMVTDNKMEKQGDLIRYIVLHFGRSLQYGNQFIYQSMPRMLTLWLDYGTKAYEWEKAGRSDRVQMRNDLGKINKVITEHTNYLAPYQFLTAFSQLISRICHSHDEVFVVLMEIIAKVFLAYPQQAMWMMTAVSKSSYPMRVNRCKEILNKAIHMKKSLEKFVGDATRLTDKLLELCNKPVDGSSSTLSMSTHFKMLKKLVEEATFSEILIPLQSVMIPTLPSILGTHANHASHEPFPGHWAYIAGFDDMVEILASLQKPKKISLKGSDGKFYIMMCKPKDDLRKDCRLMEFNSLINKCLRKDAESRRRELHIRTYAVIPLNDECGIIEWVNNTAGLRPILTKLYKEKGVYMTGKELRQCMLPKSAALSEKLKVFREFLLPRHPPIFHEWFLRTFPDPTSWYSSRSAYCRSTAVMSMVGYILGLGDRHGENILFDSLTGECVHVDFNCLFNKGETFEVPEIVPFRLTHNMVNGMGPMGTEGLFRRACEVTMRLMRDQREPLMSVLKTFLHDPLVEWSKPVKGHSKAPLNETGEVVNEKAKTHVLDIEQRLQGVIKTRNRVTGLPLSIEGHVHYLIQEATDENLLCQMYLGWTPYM
Sequence of Phosphatidylinositol 4,5-bisphosphate 3-kinase catalytic subunit gamma isoform (P48736 whole entry, the tested form may be a part, canonical isoform): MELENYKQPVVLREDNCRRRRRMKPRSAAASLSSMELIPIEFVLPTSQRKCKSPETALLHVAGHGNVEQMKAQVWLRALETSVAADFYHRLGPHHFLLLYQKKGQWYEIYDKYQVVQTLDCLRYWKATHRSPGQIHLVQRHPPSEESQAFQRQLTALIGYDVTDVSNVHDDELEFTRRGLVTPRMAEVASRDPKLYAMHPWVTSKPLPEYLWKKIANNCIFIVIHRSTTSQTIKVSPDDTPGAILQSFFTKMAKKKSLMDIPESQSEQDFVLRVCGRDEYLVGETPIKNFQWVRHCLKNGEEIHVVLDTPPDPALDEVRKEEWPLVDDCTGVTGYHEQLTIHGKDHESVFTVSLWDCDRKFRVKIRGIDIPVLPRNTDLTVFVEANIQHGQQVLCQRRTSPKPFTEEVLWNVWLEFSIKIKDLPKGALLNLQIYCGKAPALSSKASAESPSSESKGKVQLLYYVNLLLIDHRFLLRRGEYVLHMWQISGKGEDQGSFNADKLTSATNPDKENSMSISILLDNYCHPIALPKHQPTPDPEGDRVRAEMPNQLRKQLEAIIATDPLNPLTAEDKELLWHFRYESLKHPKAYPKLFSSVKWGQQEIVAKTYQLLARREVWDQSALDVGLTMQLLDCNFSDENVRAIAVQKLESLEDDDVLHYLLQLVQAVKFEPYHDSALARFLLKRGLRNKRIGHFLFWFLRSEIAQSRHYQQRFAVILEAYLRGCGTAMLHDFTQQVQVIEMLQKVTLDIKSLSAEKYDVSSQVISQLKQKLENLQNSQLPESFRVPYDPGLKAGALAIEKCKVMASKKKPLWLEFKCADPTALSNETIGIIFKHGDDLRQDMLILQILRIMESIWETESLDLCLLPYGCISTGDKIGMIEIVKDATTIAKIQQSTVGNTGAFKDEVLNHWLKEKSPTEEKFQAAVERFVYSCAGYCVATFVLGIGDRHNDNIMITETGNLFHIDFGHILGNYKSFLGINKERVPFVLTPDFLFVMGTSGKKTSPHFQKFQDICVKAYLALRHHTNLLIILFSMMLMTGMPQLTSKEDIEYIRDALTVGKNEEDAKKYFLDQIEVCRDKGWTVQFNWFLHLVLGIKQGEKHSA

## CO[C@H]1C[C@@H](n2c(=O)n(C)c3cnc4cc(F)c(-c5ccc(OCCN(C)C)nc5)cc4c32)C1
[1]
  hepatocyte CLint: 8.3 µL/min/1e6 cells
[2]
  solubility thermodynamic at 24 h: > 1000 µM
[3]
  hepatocyte CLint: 12 µL/min/1e6 cells
[4]
  pKa: 8.5
[5]
  IC50: > 33 µM
[6]
  IC50: > 30 µM
[7]
  logD: 2
In vitro
  efflux ratio: 1.6
[8]
  IC50: 0.023 µM
[9]
  Papp A→B: 16 ×10⁻⁶ cm/s

## Cn1c(=O)n(C2CCOCC2)c2c3cc(-c4cccnc4)ccc3ncc21
[1]
  hepatocyte CLint: < 4.9 µL/min/1e6 cells
[2]
  solubility thermodynamic at 24 h: 17 µM (≈ 6.13 µg/mL)
[3]
  hepatocyte CLint: 9.4 µL/min/1e6 cells
[5]
  IC50: 11 µM
[10]
  Papp A→B: 60 ×10⁻⁶ cm/s
[7]
  logD: 2.2
[9]
  Papp A→B: 30 ×10⁻⁶ cm/s

## CN(C)CCCOc1ccc(-c2ccc3ncc4c(c3c2)n(C2CCOCC2)c(=O)n4C)cn1
[11]
  IC50: 0.27 µM
[12]
  bioavailability: 57%
[13]
  Vd: 4.3 L/kg
[14]
  AUC at 12 h: 105 ng·h/mL
[2]
  solubility thermodynamic at 24 h: > 800 µM
Cytochrome P450 2C19
  IC50: > 30 µM
[4]
  pKa: 9.6
[15]
  Tmax: 2.5 h
[16]
  inhibition: 93%
[17]
  Tmax: 2 h
[18]
  Vd: 17.6 L/kg
[19]
  Cmax: 6.67 ng/mL
[20]
  AUC at 12 h: 40.4 ng·h/mL
[21]
  solubility: > 5000 µg/mL
[22]
  AUC at 12 h: 206 ng·h/mL
Mus musculus [23]
  Activity: Non-Toxic
[10]
  Papp A→B: 5.6 ×10⁻⁶ cm/s
[7]
  logD: 1.5
[24]
  IC50: 1.8 µM
Cytochrome P450 2D6
  IC50: > 30 µM
[25]
  bioavailability: 54%
[26]
  IC50: 1.1 µM
[27]
  solubility: > 5000 µg/mL
[28]
  AUC at 12 h: 330 ng·h/mL
Cytochrome P450 2C9
  IC50: > 30 µM
SW-620 [29]
  Activity: inactive
[30]
  Papp A→B: 19 ×10⁻⁶ cm/s
[31]
  Cmax: 39.6 ng/mL
[32]
  Cmax: 58.8 ng/mL
Homo sapiens
  Activity: Active
Cytochrome P450 3A4
  IC50: > 30 µM
Mus musculus [33]
  Activity: Non-Toxic
[34]
  Tmax: 2.5 h
[9]
  Papp A→B: 6.6 ×10⁻⁶ cm/s
[35]
  fraction unbound: 0.11
[36]
  Cmax: 17.5 ng/mL
Cytochrome P450 1A2
  IC50: > 30 µM
[37]
  solubility: > 5000 µg/mL
SW-620 [38]
  Activity: Active
[39]
  Tmax: 2 h

## NC(=O)c1cnc2ccc(-c3cccnc3)cc2c1NC1CCOCC1
[1]
  hepatocyte CLint: < 4 µL/min/1e6 cells
[2]
  solubility thermodynamic at 24 h: > 610 µM
[10]
  Papp A→B: 15 ×10⁻⁶ cm/s
[9]
  Papp A→B: 4.8 ×10⁻⁶ cm/s
